The results in this text go back to ChEMBL document CHEMBL2086360, “α-Glucosidase inhibitory hydrolyzable tannins from Eugenia jambolana seeds” (J Nat Prod, 2012).

This assay in a line: Inhibition of yeast alpha-glucosidase using p-nitrophenyl-alpha-D-glucopyranoside as substrate compound pre-incubated for 10 mins before substrate addition measured after 5 mins by microplate reader. Further details: species or system Saccharomyces cerevisiae.
In general, IC50 refers to the concentration needed to halve the response being measured. The compound `O=C(O[C@H]1[C@H](O)[C@@H](CO)OC(O)[C@@H]1OC(=O)c1cc(O)c(O)c(O)c1Oc1c(O)cc2c(=O)oc3c(O)c(O)cc4c(=O)oc1c2c34)c1cc(O)c(O)c(O)c1` (mixture of isomers) yielded an IC50 of 8.2 µM.

Take `C[C@H]1O[C@H](O[C@H]2[C@H](O)[C@@H](O)[C@@H](O[C@H]3[C@H](O)[C@@H](O)C(O)O[C@@H]3CO)O[C@@H]2CO)[C@H](O)[C@@H](O)[C@@H]1N[C@H]1C=C(CO)[C@@H](O)[C@H](O)[C@H]1O` (stereo not given in full) [ACARBOSE]: 209 µM corresponded to half-maximal inhibition (IC50).

Consider `O=C(O[C@H]1[C@@H]2OC(=O)c3cc(O)c(O)c(O)c3-c3c(cc(O)c(O)c3O)C(=O)OC[C@H]2OC(O)[C@@H]1OC(=O)c1cc(O)c(O)c(O)c1Oc1cc2c(=O)oc3c(O)c(O)cc4oc(=O)c(c1O)c2c43)c1cc(O)c(O)c(O)c1` (stereo not given in full) [CORNUSSIN B], for which half-maximal inhibition (IC50) was put at 12.2 µM.

Compound `O=C(O[C@H]1[C@H](O)[C@@H](CO)OC(O)[C@@H]1OC(=O)c1cc(O)c(O)c(O)c1Oc1cc2c(=O)oc3c(O)c(O)cc4c(=O)oc(c1O)c2c34)c1cc(O)c(O)c(O)c1` (stereo not given in full) [OENOTHEIN C] came in with a concentration for half-maximal inhibition (IC50) of 75.1 µM.

Compound `COc1cc2oc(-c3ccc(O)cc3)cc(=O)c2c(O)c1[C@@H]1O[C@H](CO)[C@@H](O)[C@H](O)[C@H]1O` [SWERTISIN] yielded an IC50 of 146 µM.
